In the supplement of paper PMC10307832:

Legend:
Assay in all cases: relative viability (nuclei count vs DMSO), 5 days (fraction); higher = more cells survive
TGX 221 + Lapatinib = compound: CC1=CN2C(=O)C=C(N=C2C(=C1)C(C)NC3=CC=CC=C3)N4CCOCC4 [TGX 221] + CS(=O)(=O)CCNCc1ccc(-c2ccc3ncnc(Nc4ccc(OCc5cccc(F)c5)c(Cl)c4)c3c2)o1 [Lapatinib] (partner 2 µM)
Method in brief: (§1)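 Relative viability equals treated-well nuclei counts divided by vehicle-well nuclei counts. Counts came from 4× images of lung cancer cell lines grown in 1536-well plates for 5 days after pin-tool dosing on the day after seeding. Dosing used one drug alone or a fixed anchor-drug dose plus five library-drug doses (not always all listed) in √10 steps, and values are medians of duplicate plates.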

Ricolinostat + Dasatinib = compound: O=C(CCCCCCNC(=O)c1cnc(N(c2ccccc2)c2ccccc2)nc1)NO [Ricolinostat] + Cc1nc(Nc2ncc(C(=O)Nc3c(C)cccc3Cl)s2)cc(N2CCN(CCO)CC2)n1 [Dasatinib] (partner 0.075 µM)
Method in brief: as §1

TGX 221 + Crizotinib = compound: CC1=CN2C(=O)C=C(N=C2C(=C1)C(C)NC3=CC=CC=C3)N4CCOCC4 [TGX 221] + C[C@@H](Oc1cc(-c2cnn(C3CCNCC3)c2)cnc1N)c1c(Cl)ccc(F)c1Cl [Crizotinib] (partner 1 µM)
Method in brief: as §1

| Cell Line | relative viability (TGX 221 + Lapatinib; first compound 0.08 µM) | relative viability (TGX 221 + Lapatinib; first compound 0.253 µM) | relative viability (TGX 221 + Lapatinib; first compound 0.8 µM) | relative viability (TGX 221 + Lapatinib; first compound 2.53 µM) | relative viability (TGX 221 + Lapatinib; first compound 8 µM) | relative viability (Ricolinostat + Dasatinib; first compound 0.08 µM) | relative viability (Ricolinostat + Dasatinib; first compound 0.253 µM) | relative viability (Ricolinostat + Dasatinib; first compound 0.8 µM) | relative viability (Ricolinostat + Dasatinib; first compound 2.53 µM) | relative viability (TGX 221 + Crizotinib; first compound 0.08 µM) | relative viability (TGX 221 + Crizotinib; first compound 0.253 µM) | relative viability (TGX 221 + Crizotinib; first compound 0.8 µM) | relative viability (TGX 221 + Crizotinib; first compound 2.53 µM) | relative viability (TGX 221 + Crizotinib; first compound 8 µM) |
| --- | --- | --- | --- | --- | --- | --- | --- | --- | --- | --- | --- | --- | --- | --- |
| LK-2 | 0.853 | 0.891 | 0.887 | 0.915 | 1.01 | 0.34 | 0.271 | 0.444 | 0.35 | 0.252 | 0.212 | 0.235 | 0.213 | 0.269 |
| LOU-NH91 | 0.71 | 0.814 | 0.751 | 0.728 | 0.739 | 0.453 | 0.543 | 0.558 | 0.533 | 0.796 | 0.75 | 0.746 | 0.735 | 0.655 |
| LU99A | 0.957 | 0.865 | 0.939 | 1.01 | 0.913 | 0.461 | 0.583 | 0.465 | 0.512 | 0.493 | 0.577 | 0.516 | 0.517 | 0.563 |
| LXF-289 | 0.933 | 0.889 | 0.955 | 0.904 | 0.885 | 0.193 | 0.274 | 0.272 | 0.306 | 0.813 | 0.832 | 0.808 | 0.774 | 0.82 |
| NCI-H23 | 1.13 | 0.95 | 1.1 | 1.12 | 0.975 | 0.667 | 0.786 | 0.698 | 0.47 | 0.58 | 0.391 | 0.518 | 0.465 | 0.454 |
| NCI-H322M | 0.567 | 0.6 | 0.547 | 0.562 | 0.67 |  | 0.275 | 0.26 | 0.255 | 0.945 | 1.03 | 0.95 | 0.823 | 0.911 |
| NCI-H358 | 0.477 | 0.458 | 0.472 | 0.42 | 0.442 | 0.164 | 0.168 | 0.146 | 0.187 | 0.556 | 0.535 | 0.661 | 0.633 | 0.395 |
| NCI-H441 |  |  |  |  |  |  | 0.586 | 0.601 | 0.538 | 0.732 | 0.82 | 0.657 | 0.62 | 0.697 |
| NCI-H460 | 0.709 | 0.795 | 0.983 | 0.969 | 0.966 | 0.319 | 0.459 | 0.444 | 0.42 | 0.754 | 0.811 | 1.05 | 0.896 | 0.64 |
| NCI-H520 | 0.724 | 0.562 | 0.824 | 0.671 | 0.516 |  | 0.313 | 0.211 | 0.231 | 0.532 | 0.724 | 0.68 | 0.572 | 0.398 |
| NCI-H522 |  |  |  |  |  | 0.867 | 0.884 | 0.946 | 0.872 |  |  |  |  |  |
| NCI-H596 | 1.13 | 1.09 | 1.03 | 0.993 | 0.958 | 0.586 | 0.553 | 0.613 | 0.494 | 0.993 | 1.04 | 1 | 0.823 | 0.82 |
| NCI-H647 | 0.95 | 0.869 | 0.955 | 0.746 | 0.61 | 0.109 | 0.144 | 0.181 | 0.246 | 1.12 | 0.947 | 1.06 | 1.04 | 0.553 |
| NCI-H650 | 1 | 0.98 | 0.706 | 0.908 | 0.76 | 0.36 | 0.463 | 0.365 | 0.314 | 0.729 | 0.655 | 0.624 | 0.689 | 0.534 |
| NCI-H661 | 0.486 | 0.376 | 0.439 | 0.382 | 0.394 | 0.795 | 0.88 | 0.889 | 0.731 |  | 1.12 | 0.973 | 0.959 | 1.07 |
| NCI-H727 | 0.751 | 0.731 | 0.794 | 0.832 | 0.919 | 0.352 | 0.479 | 0.47 | 0.452 | 0.879 | 0.792 | 0.663 | 0.861 | 0.821 |
| NCI-H838 | 1.06 | 0.876 | 0.886 | 0.822 | 0.718 |  | 0.318 | 0.287 | 0.452 | 0.833 | 0.77 | 0.783 | 0.699 | 0.51 |
| NCI-H1299 | 0.987 | 0.99 | 0.978 | 1.03 | 0.894 |  |  |  |  | 0.933 | 0.942 | 0.949 | 0.96 | 0.904 |
| NCI-H1355 | 1.07 | 0.964 | 0.859 | 0.95 | 0.852 | 0.588 | 0.69 | 0.645 | 0.62 | 1.02 | 1.07 | 1.01 | 0.913 | 0.887 |
| NCI-H1395 | 0.926 | 0.862 | 0.751 | 0.804 | 0.714 |  | 0.383 | 0.368 | 0.403 |  |  |  |  |  |
| NCI-H1437 | 0.904 | 0.722 | 0.773 | 0.72 | 0.711 | 0.398 | 0.511 | 0.337 | 0.279 | 0.931 | 0.908 | 0.876 | 0.861 | 0.819 |
| NCI-H1563 | 0.922 | 0.871 | 0.791 | 0.851 | 0.796 | 0.472 | 0.461 | 0.441 | 0.494 | 0.846 | 0.832 | 0.766 | 0.736 | 0.666 |
| NCI-H1623 |  |  |  |  |  | 0.484 | 0.612 | 0.528 | 0.475 |  |  |  |  |  |
| NCI-H1650 | 0.654 | 0.64 | 0.617 | 0.759 | 0.581 | 0.275 | 0.381 | 0.289 | 0.287 | 0.828 | 0.857 | 0.875 | 0.956 | 0.545 |
| NCI-H1703 | 1.02 | 0.974 | 0.95 | 0.859 | 0.757 |  |  |  |  | 0.797 | 0.618 | 0.715 | 0.31 | 0.54 |
| NCI-H1793 | 0.633 | 0.624 | 0.721 | 0.58 | 0.456 |  | 0.397 | 0.348 | 0.322 |  |  |  |  |  |
| NCI-H2342 |  |  |  |  |  | 0.32 | 0.311 | 0.365 | 0.293 |  |  |  |  |  |
| SW 900 |  |  |  |  |  | 0.495 | 0.578 | 0.662 | 0.352 |  |  |  |  |  |
